Data from patent US20130004589A1, “DIVALENT CATION/ANION PAIR CONTAINING COMPOSITIONS AND METHODS FOR TREATING AND/OR PREVENTING ENZYMATIC IRRITATION” (priority 2011, published 2013).

Legend:
trypsin [1] = assay: EnzChek trypsin inhibition assay of talc mixed with divalent cation salts (Example 3); assay type: biochemical; settings: for % synergistic activity relative to hypothetic additive value: Table 3, all materials 0.1% (g/mL)
Method: The objective of the following experiment was to determine whether and to what extent adding a divalent cation to talc inhibited trypsin activity in an in vitro assay. The inhibition of trypsin-induced cleavage of a fluorescent casein peptide was measured using the EnzChek™ protease assay kit, following manufacturer's instructions (EnzChek™ Protease Assay Kits Product Information, Revised; Molecular Probes, Eugene Oreg.). […] Trypsin working solution (Sigma, St. Louis, Mo., unit/mL) was prepared in digestion buffer provided in the assay kit. Stock solution of BODIPY FL casein (trypsin substrate, mg/mL) was prepared by adding 0.2 mL to the substrate vials (provided in kit), and the final substrate working solution (10 microgram/mL) was prepared by dilution in digestion buffer (pH 7.8). Following incubation of the trypsin, with or without the test materials, with the BODIPY fluorescent casein substrate, at room temperature for one hour, fluorescence was measured (excitation 485 nm/emission 530 nm) using a SpectraMax microtiter plate reader (Molecular Devices Corporation, Sunnyvale, Calif.) and Softmax Pro software (Molecular Devices Corporation). Each experiment was performed in three replicates.

trypsin [2] = assay: EnzChek trypsin inhibition assay of zinc oxide/acid mixtures and zinc oxide formulations (Example 4); assay type: biochemical; settings: Example 4 conclusions
Method: The objective of the following experiment was to determine whether and to what extent adding an acid to a formulation containing zinc oxide had on inhibition of trypsin activity in an in vitro assay. The inhibition of trypsin-induced cleavage of a fluorescent casein peptide was measured using the EnzChek™ protease assay kit, following manufacturer's instructions (EnzChek™ Protease Assay Kits Product Information, Revised; Molecular Probes, Eugene Oreg.). Briefly, mixtures of zinc oxide and acid at different concentrations were prepared in 1×PBS (pH 7.4) and their pH was recorded as listed in the Tables 5-8. Trypsin working solution (Sigma, St. Louis, Mo., unit/mL) was prepared in digestion buffer provided in the assay kit. Stock solution of BODIPY FL casein (trypsin substrate, mg/mL) was prepared by adding 0.2 mL to the substrate vials (provided in kit), and the final substrate working solution (10 microgram/mL) was prepared by dilution in digestion buffer (pH 7.8). Following incubation of the trypsin, with or without the test materials (50 μl), with the BODIPY fluorescent casein substrate, at room temperature for one hour, fluorescence was measured (excitation 485 nm/emission 530 nm) using a SpectraMax microtiter plate reader (Molecular Devices Corporation, Sunnyvale, Calif.) and Softmax Pro software (Molecular Devices Corporation). Each experiment was performed in three replicates.

SMILES: CC(=O)[O-].CC(=O)[O-].O.[Ca+2] [Calcium acetate monohydrate]
- % synergistic activity relative to hypothetic additive value (trypsin [1]): 3.10%

SMILES: [Ca+2].[Cl-].[Cl-] [Calcium chloride]
- % synergistic activity relative to hypothetic additive value (trypsin [1]): −0.26%

SMILES: [Cl-].[Cl-].[Mg+2] [Magnesium chloride]
- trypsin inhibitory activity, result in words (trypsin [1]; Example 3, Table 4 conclusions): moderate to low levels

SMILES: [O]=[Zn] [ZnO, zinc oxide]
- trypsin inhibitory activity, result in words (trypsin [2]): minimal protease activity
